One assay has as its system autophagy. The experiment in a line: Immunoblotting for autophagic markers LC3b and p62 in HEK-293A cells. The assay is classed as cell-based. Here is the method: (§1) FIGS. 6A-6D. CC 1-44 inhibits mTORC1 signaling and activates autophagy. (FIG. 6A) Visual IP experiment monitoring binding of GFP-RagB to RFP-tagged, bead-bound Lamtor complex. […] (FIG. 6B) Immunofluorescence for endogenous RagA and LAMP2 in HEK-293A cells treated with DMSO, YP 1-44 or CC 1-44 for 2 h. […] (FIG. 6C) Immunofluorescence for endogenous mTOR and LAMP2 in HEK-293A cells treated with DMSO or CC 1-44 for 2 h. […] (FIG. 6D) Immunoblotting for autophagic markers LC3b and p62 from HEK-293A cells treated with DMSO (lane 1) or CC 1-44 (lane 3) for 2 h.
In cells treated with CC 1-44, autophagy becomes activated within 1 h, as judged by accumulation of cleaved LC3b and increased degradation of p62 (FIG. 6D).
In general terms: Immunoblotting shows a protein as a band on a membrane.

In assay [1] the target is T1, Lamtor (a.k.a. Ragulator) and Rag GTPase protein complexes (Homo sapiens, UniProt O43504).
T1 construct: RFP (on the Ragulator complex); GST (large-scale screen); on the Ragulator complex; made in house; host or cells: HEK293T (small-scale screen), HEK293F (large-scale screen), transient transfection
The experiment in a line: Visual-IP of Rag GTPase binding to bead-bound Lamtor (Ragulator). The note with it: for disruption of Rag GTPase-Lamtor interaction (Visual IP): in vitro, GFP-RagB on RFP-Ragulator beads, 50 μM compound in small-scale screens. An excerpt:
To assay for mTORC1-inhibiting compounds, we in vitro-reconstituted the interaction between the Lamtor (a.k.a. Ragulator) and Rag GTPase protein complexes, which are essential for amino acid-driven mTORC1 recruitment (and thus activation) to the lysosome (24, 30, 36, 37). We sequentially coated agarose beads with RFP-tagged Ragulator and with GFP-tagged Rag GTPases, resulting in Rag binding to the beads via their interaction with Lamtor. This method, which we call ‘Visual co-immunoprecipitation’ (Visual-IP) is essentially a binding reaction at equilibrium, in which the interaction between the two binding partners can be easily scored as color overlap between the bead-bound, red-tagged Lamtor and the soluble, green-fluorescent Rag GTPases. Interaction between the two proteins results in red-green color overlap (‘yellow beads’), whereas when the interaction is disrupted, partial or complete dispersion of the green signal in the surrounding buffer is observed (‘red beads’) (FIG. 1A and FIG. 1B). This assay could easily be scaled up and implemented in 384-well plates, which were imaged with the aid of an automated fluorescence microscope (FIG. 1C).
HEK293T cells were plated on 15 cm plates at 10 million cells per plate. 24 hours later, the cells were transfected using 500 μL OptiMEM transfection media, 60 μL polyethyleneimine (PEI, Sigma) and 10 μg total DNA. The transfection mix was incubated for 15 minutes and then added directly to the cell media. 48 hours later, the media was removed, and the cells were washed three times with PBS. The cells were scraped from the plate and collected in 10 mL PBS. The samples were centrifuged for 5 minutes at 1500 g at 4° C. The cell pellets were then resuspended in 1 mL Triton lysis buffer (1% Triton X-100, 130 mM NaCl, 2 mM EGTA, 2.5 mM MgCl2, 25 mM HEPES, pH 7.4, 10% glycerol, protease inhibitor (Pierce)), and allowed to rotate at 4° C. for 20 minutes. The samples were then centrifuged at 13000 g for 2 minutes, and the supernatant was separated for immunoprecipitation. 50 μL of washed anti-FLAG affinity beads (Sigma) were added to the supernatant and the sample was rotated at 4° C. for 2 hours. After immunoprecipitation, the samples were washed twice in Triton lysis buffer, once in high salt (500 mM NaCl) lyso sucrose buffer, and once in normal salt lyso sucrose buffer (250 mM sucrose, 10 mM KCl, 2 mM EGTA, 2.5 mM MgCl2, 25 mM HEPES, pH 7.4, 10% glycerol, protease inhibitor (Pierce)). Each wash consisted of rotating with the wash buffer for 5 minutes at 4° C. and subsequent centrifugation at 2000 g for 1 minute. For elution off FLAG beads, 3×-FLAG peptide in Phosphate Buffered Saline (PBS) was added to the sample, [RL2] and the sample was allowed to rotate overnight at 4° C. […]

For another assay, the system named is Hela whole cell proteome. As to the kind of experiment: Gel-based ABPP of IA-alkyne cysteine reactivity in Hela whole cell proteome. An excerpt:
Thus, we performed medicinal chemistry to optimize the potency and selectivity of our initial hits by addition of further bulk to the core YP 1-44 scaffold (FIGS. 9A-9C; FIG. 5B). We initially screened these compounds against both LAMTOR5 and the Ragulator complex using gel-based ABPP methods competing the binding of these YP 1-44 analogs against IA-alkyne labeling of these proteins (FIG. 5C, FIG. 9). We also tested these compounds against Hela cell whole proteome cysteine reactivity to get initial read-outs of proteome-wide selectivity (FIGS. 9A-9C, FIG. 5D).

Another assay relates to mTOR. The experiment in a line: Immunofluorescence of mTOR and LAMP2 in HEK-293A cells. Type of assay: cell-based. Particulars: 2 h. On the procedure: as §1
Next, we investigated the mechanism of mTORC1 inhibition by CC-1-44 using visual IP and immunofluorescence. […] Indeed, when we visualized RagA and RagC localization in CC 1-44-treated cells, their localization to LAMP2-positive lysosomes was increased, not decreased as for YP 1-44 (FIG. 6B). This observation pointed to a different mechanism for mTORC1 inactivation by CC 1-44. Rather than disrupting the integrity of the LAMTOR-Rag assembly, CC 1-44 prevents its activation, causing it to strongly accumulate at the lysosome in a conformation that is unable to bind to mTORC1.

Entries after “also recorded” stand apart in the source; their conditions may differ.

In the case of `C=CC(=O)N1CCc2c(OCc3cc(C(F)(F)F)cc(C(F)(F)F)c3)cccc21` [CC 1-44], the “autophagy (LC3b band increase, p62 band disappearance)” value in the assay with autophagy (HEK-293A cells, 2 h) is recorded as “activation of autophagy”. For the same molecule, the total autophagic flux result with autophagy (HEK-293A cells, 2 h, with Bafilomycin A) is listed as “increased”. In addition, the “time to autophagy activation (accumulation of cleaved LC3b, increased degradation of p62)” value in the assay on autophagy (treated cells) is given as at most 1 h. The “disruption of Rag GTPase-Lamtor interaction (Visual IP)” value in assay [1] is “does not; also recorded: did not break the LAMTOR-Rag interaction in vitro”. Besides, the “proteome-wide selectivity (displacement of IA-alkyne cysteine reactivity)” value in the assay on Hela whole cell proteome was “selectivity at up to 1 mM; also recorded: apparent selectivity up to 1 mM”. Moreover, in the assay on mTOR, the “mTOR/mTORC1 localization to lysosomes” value was “induces dissociation of mTOR from lysosomes; also recorded: completely dispersed from lysosomes”.
Regarding `C=CC(=O)n1ccc2ccccc21` [YP 1-44], the “displacement of Rag and Lamtor interactions” value in assay [1] (10 μM, dose-responsive) is listed as about 50%. For the same molecule, the “disruption of Rag GTPase-Lamtor interaction (Visual IP)” value is given as “causes RagB dissociation from Lamtor; also recorded: disrupted the interaction” in assay [1] and “dispersion of the GFP-RagB signal” in assay [1] (listed as YP1-44). Moreover, in the assay with Hela whole cell proteome, the “proteome-wide selectivity (displacement of IA-alkyne cysteine reactivity)” value is “non-selectivity at 100 μM and above; also recorded: not sufficiently selective at higher concentrations (>100 μM)”. In addition, the “mTOR/mTORC1 localization to lysosomes” value in the assay on mTOR is given as “completely dispersed from lysosomes”.
